Where two headings read alike, the source gives them in different places.
Experiments:
[1] = tested on: TA 98 and TA104 strains containing pMOL1067 or pMOL1068
S. typhimurium = conditions: cited from earlier work
E. coli (sfiA-lacZ) = conditions: cited from earlier work
[2] = tested on: novel biosensor systems in E. coli and in S. typhimurium strains; assay: Subject SOS promoter-lux systems (general statements); conditions: for result in the novel systems according to the invention: agents known to give false negative results in the SOS chromotest and the Ames test
[3] = tested on: TA98 and TA104 strains containing pMOL890, pMOL1067 or pMOL1068; assay: Test with the TA98 and TA104 strains containing pMOL890, pMOL1067 or pMOL1068
TA104 (pMOL890) = conditions: M9 medium saturated with 0.1% of the PAH, degrading strain, samples every 3 days
[4] = tested on: S. typhimurium TA98 containing pMOL890; conditions: TA98 pMOL890
[5] = tested on: S. typhimurium TA98 containing pMOL1068; conditions: TA98 pMOL1068
[6] = tested on: S. typhimurium TA104 containing pMOL1067; conditions: TA104 pMOL1067
[7] = tested on: S. typhimurium TA104 containing pMOL890; conditions: TA104 pMOL890
[8] = tested on: S. typhimurium TA98 containing pMOL1067; conditions: TA98 pMOL1067
[9] = tested on: S. typhimurium TA104 containing pMOL1069; conditions: TA104 pMOL1069
[10] = tested on: S. typhimurium TA104 containing pMOL1066; conditions: TA104 pMOL1066
[11] = tested on: S. typhimurium TA104 containing pMOL1068; conditions: TA104 pMOL1068
[12] = TA 98 and TA104 strains containing pMOL1067 or pMOL1068

Cl[C@H]1[C@H](Cl)[C@@H](Cl)[C@@H](Cl)[C@H](Cl)[C@H]1Cl [Lindane]
OUTCOME (genotoxicity, final outcome) [1, 12]: neg | AMES (result) (S. typhimurium): neg | SOS (result) (E. coli (sfiA-lacZ); SOS chromotest, Table 3): neg

CN(Cc1cnc2nc(N)nc(N)c2n1)c1ccc(C(=O)N[C@@H](CCC(=O)O)C(=O)O)cc1 [Methotrexate]
OUTCOME (genotoxicity, final outcome) [1, 12]: pos | AMES (result) (S. typhimurium; Ames test, Table 3): pos | SOS (result) (E. coli (sfiA-lacZ); SOS chromotest, Table 3): pos

CO[C@@]12[C@H](COC(N)=O)C3=C(C(=O)C(C)=C(N)C3=O)N1C[C@@H]1N[C@@H]12 [Mitomycin C]
level that can be detected ([2]; subject systems): 7 ng/mL

CCN(CC)N=O [N-Nitrosodiethylamine]
OUTCOME (genotoxicity, final outcome) [1, 12]: pos | AMES (result) (S. typhimurium): pos | SOS (result) (E. coli (sfiA-lacZ); SOS chromotest, Table 3): pos

CCn1cc(C(=O)O)c(=O)c2ccc(C)nc21 [Nalidixic acid]
OUTCOME (genotoxicity, final outcome) [1, 12]: pos | AMES (result) (S. typhimurium): neg | result in the Ames test (S. typhimurium): False-negative | result in the novel systems according to the invention [2]: positive | result in the test (genotoxicity) [3]: positive

c1ccc2ccccc2c1 [Naphtalene]
OUTCOME (genotoxicity, final outcome) [1]: neg | SOS (result) (E. coli (sfiA-lacZ)): neg

O=C(N/N=C/c1ccc([N+](=O)[O-])o1)c1ccc(O)cc1 [Nifuroxazide]
OUTCOME (genotoxicity, final outcome) [1, 12]: pos | AMES (result) (S. typhimurium; Ames test, Table 3): pos

Oc1c(Cl)c(Cl)c(Cl)c(Cl)c1Cl [Pentachlorophenole]
SOS (result) (E. coli (sfiA-lacZ)): pos

c1ccc2c(c1)ccc1ccccc12 [Phenanthrene]
OUTCOME (genotoxicity, final outcome) [1, 12]: pos | genotoxicity during bacterial degradation of the PAH (TA104 (pMOL890)): an increase followed by a decrease in genotoxicity | AMES (result) (S. typhimurium; Ames test, Table 3): neg | result in the Ames test (S. typhimurium; text b127): False-negative | result in the novel systems according to the invention [2]: positive | result in the test (genotoxicity) [3]: positive | SOS (result) (E. coli (sfiA-lacZ); SOS chromotest, Table 3): pos

c1cc2ccc3cccc4ccc(c1)c2c34 [Pyrene]
OUTCOME (genotoxicity, final outcome) [1, 12]: pos | AMES (result) (S. typhimurium): neg | result in the Ames test (S. typhimurium): False-negative | result in the novel systems according to the invention [2]: positive | result in the test (genotoxicity) [3]: positive

CCCCCCCCCCCCOS(=O)(=O)[O-].[Na+] [Sodium Dodecyl Sulphate]
OUTCOME (genotoxicity, final outcome) [1, 12]: neg | AMES (result) (S. typhimurium; Ames test, Table 3): neg

[N-]=[N+]=[N-] [Sodiumazide]
OUTCOME (genotoxicity, final outcome) [1, 12]: pos | AMES (result) (S. typhimurium): pos | result in the novel systems according to the invention [2]: positive | result in the test (genotoxicity) [3]: positive | SOS (result) (E. coli (sfiA-lacZ); SOS chromotest, Table 3): neg | result in the SOS chromotest (E. coli (sfiA-lacZ); text b126): negative

[Cl-].[Cl-].[Zn+2] [ZnCl2]
OUTCOME (genotoxicity, final outcome) [1]: neg | AMES (result) (S. typhimurium): neg | SOS (result) (E. coli (sfiA-lacZ)): neg

c1ccc2c(c1)ccc1c3ccccc3ccc21 [chrysene]
MINIMAL DETECTED CONCENTRATION (MDC) [4]: 2.2 nmol/assay | MINIMAL DETECTED CONCENTRATION (MDC) [5]: 5.5 nmol/assay | MINIMAL DETECTED CONCENTRATION (MDC) [6]: 0.55 nmol/assay | OUTCOME (genotoxicity, final outcome) [1, 12]: pos | MINIMAL DETECTED CONCENTRATION (MDC) [7]: 2.2 nmol/assay | AMES (result) (S. typhimurium): pos | MINIMAL DETECTED CONCENTRATION (MDC) (S. typhimurium): pos | MINIMAL DETECTED CONCENTRATION (MDC) [8]: 5.5 nmol/assay | MINIMAL DETECTED CONCENTRATION (MDC) [9]: 0.55 nmol/assay | MINIMAL DETECTED CONCENTRATION (MDC) [10]: 1.095 nmol/assay | SOS (result) (E. coli (sfiA-lacZ); SOS chromotest, Table 3): pos | MINIMAL DETECTED CONCENTRATION (MDC) (E. coli (sfiA-lacZ); SOS chromotest, literature values): 11 nmol/assay | MINIMAL DETECTED CONCENTRATION (MDC) [11]: 1.095 nmol/assay

c1ccc2c(c1)Cc1ccccc1-2 [fluorene]
genotoxicity during bacterial degradation of the PAH (TA104 (pMOL890)): no significant increase in genotoxicity

From patent publication US6521751B1, “Recombinant nucleic acid sequences and methods for determining both genotoxicity and mutagenicity of a sample and the kinetics of the genotoxicity” (Vlaamse Instelling voor Technologisch Onderzoek (VITO), priority 1998, dated 2003)
